Columns and labels:
[1] = Stability in rat serum assessed as parent compound remaining measured after 30 mins by LC-MS analysis; type: ADME, cell-free; details: read-out: Stability
[2] = Metabolic stability in rat liver microsomes assessed as parent compound remaining measured after 30 mins in presence of NADPH by LC-MS/MS analysis; type: ADME, Microsome; details: read-out: Stability

| SMILES | remaining at 0.5 h [1] | remaining at 0.5 h [2] |
| --- | --- | --- |
| CC(=O)c1ccc(C(O)C(F)(F)C(=O)C23CC4CC(CC(C4)C2)C3)cc1 (configuration not stated) | 73% | 70.5% |
| COc1ccc(C(O)C(F)(F)C(=O)c2ccc3ccccc3c2)cc1 (configuration not stated) | 88.5% | < 1% |
| O=C(c1ccc(Cl)cc1)C(F)(F)C(NCc1ccccc1)c1ccccc1 (configuration not stated) | 87% | 2% |
| CC(C)(C)OC(=O)NC(c1ccccc1)C(F)(F)C(=O)c1ccc2ccccc2c1 (configuration not stated) | 71.5% | 4% |
| CC(C)(C)OC(=O)NC(c1ccccc1)C(F)(F)C(=O)c1ccc2c(c1)OCO2 (configuration not stated) | 100% | 2.5% |
| O=C(c1ccc2ccccc2c1)C(F)(F)C(NCc1ccccc1)c1ccccc1 (configuration not stated) | 85% | 3.5% |
| O=C(C12CC3CC(CC(C3)C1)C2)C(F)(F)C(O)c1ccc(Cl)cc1 (configuration not stated) | 48.5% | < 1% |
| C/C=C/C=C/C(NCc1ccccc1)C(F)(F)C(=O)c1ccc2ccccc2c1 (configuration not stated) | 100% | 2% |
| CC(C)(C)OC(=O)NC(c1cccc(Br)c1)C(F)(F)C(=O)c1ccc(Cl)cc1 (configuration not stated) | 100% | < 1% |
| CC(C)(C)OC(=O)NC(c1ccc(Cl)cc1)C(F)(F)C(=O)c1ccc(Cl)cc1 (configuration not stated) | 83% | 3% |
| O=C(c1cccc(SCc2ccccc2)c1)C(F)(F)C(NCc1ccccc1)c1ccccc1 (configuration not stated) | 97% | 12.5% |
| O=C(c1ccc2ccccc2c1)C(F)(F)C(O)c1cccc(F)c1 (configuration not stated) | 82% | < 1% |
| CC(C)(C)OC(=O)NC(c1cccc(F)c1)C(F)(F)C(=O)c1ccc(Cl)cc1 (configuration not stated) | – | < 1% |
| CCC/C=C/C(O)C(F)(F)C(=O)C12CC3CC(CC(C3)C1)C2 (configuration not stated) | < 1% | 63% |
| O=C(c1ccc2ccccc2c1)C(F)(F)CO | 100% | 41.5% |
| COc1ccc(C(Nc2ccc(F)cc2)C(F)(F)C(=O)c2ccc3ccccc3c2)cc1 (configuration not stated) | 76% | 2% |
| O=C(c1ccc2c(c1)OCO2)C(F)(F)C(O)c1ccccc1 (configuration not stated) | 83.5% | 53% |
| O=C(c1ccc2ccccc2c1)C(F)(F)C(O)/C=C/c1ccccc1 (configuration not stated) | 90.5% | 75.5% |
| O=C(c1ccc2ccccc2c1)C(F)(F)C(Nc1ccccc1)c1ccccc1 (configuration not stated) | 85% | 1% |
| CC(C)(C)NC(c1ccccc1)C(F)(F)C(=O)c1ccc2ccccc2c1 (configuration not stated) | 98% | < 1% |

| SMILES | remaining at 0.5 h [1] | remaining at 0.5 h [2] |
| --- | --- | --- |
| COc1ccc(NC(c2ccc(OC)cc2)C(F)(F)C(=O)c2ccc3ccccc3c2)cc1 (configuration not stated) | 100% | 7.5% |
| O=C(c1ccc2ccccc2c1)C(F)(F)C(O)c1ccc(F)cc1 (configuration not stated) | 96.5% | < 1% |
| O=C(c1ccc(Cl)cc1)C(F)(F)C(O)c1ccccc1 (configuration not stated) | 97% | 98.5% |
| COc1ccc(C(NC(=O)OC(C)(C)C)C(F)(F)C(=O)c2ccc3ccccc3c2)cc1 (configuration not stated) | 61% | 10% |
| COc1ccc(C(O)C(F)(F)C(=O)C23CC4CC(CC(C4)C2)C3)cc1 (configuration not stated) | 66.5% | 85.5% |
| O=C(c1ccc2c(c1)OCO2)C(F)(F)C(O)c1ccc(Cl)cc1 (configuration not stated) | 85% | 11.5% |
| CC(=O)c1ccc(C(O)C(F)(F)C(=O)c2ccc3ccccc3c2)cc1 (configuration not stated) | 86.5% | < 1% |
| CC(C)(C)OC(=O)NC(c1ccc(Cl)cc1)C(F)(F)C(=O)c1ccc2ccccc2c1 (configuration not stated) | < 1% | 7.5% |
| CC(C)(C)OC(=O)NC(c1ccc(F)cc1)C(F)(F)C(=O)c1ccc(Cl)cc1 (configuration not stated) | 80.5% | < 1% |
| COc1ccc(C(Nc2ccccc2)C(F)(F)C(=O)c2ccc3ccccc3c2)cc1 (configuration not stated) | 100% | < 1% |
| CC(C)(C)OC(=O)NC(c1ccc(F)cc1)C(F)(F)C(=O)c1ccc2ccccc2c1 (configuration not stated) | 100% | < 1% |
| CC(C)(C)OC(=O)NC(c1ccc(Cl)cc1)C(F)(F)C(=O)c1ccc2c(c1)OCO2 (configuration not stated) | 89% | 83% |
| CC(C)(C)OC(=O)NC(c1cccc(Br)c1)C(F)(F)C(=O)c1ccc2ccccc2c1 (configuration not stated) | 35.5% | 55% |
| Cc1ccc(NC(c2ccc(F)cc2)C(F)(F)C(=O)c2ccc3ccccc3c2)cc1C (configuration not stated) | 74% | 2% |
| COc1cc2c(cc1OC)C(C(F)(F)C(=O)c1ccc(C(F)(F)F)cc1)NCC2 (configuration not stated) | 97.5% | 7.5% |
| O=C(C12CC3CC(CC(C3)C1)C2)C(F)(F)C(NCc1ccccc1)c1ccccc1 (configuration not stated) | 100% | < 1% |
| CC(C)(C)OC(=O)NC(c1ccccc1)C(F)(F)C(=O)c1ccc(Cl)cc1 (configuration not stated) | 99% | < 1% |
| CC(C)(C)OC(=O)NC(c1ccc(C(F)(F)F)cc1)C(F)(F)C(=O)c1ccc2ccccc2c1 (configuration not stated) | 48.5% | 27% |
| CC(C)(C)OC(=O)NC(c1cccc(F)c1)C(F)(F)C(=O)c1ccc2ccccc2c1 (configuration not stated) | 98% | 5% |
